This is an account of results in patent publication EP4725507A1, “POLYPEPTIDE CONJUGATE, PHARMACEUTICAL COMPOSITION CONTAINING POLYPEPTIDE CONJUGATE AND USE THEREOF” (Nanjing Anji Biotechnology Co., Ltd., priority 2023, dated 2025).

Peptide text beside a SMILES is read from it. * marks the point of attachment. Paclitaxel(2'-O-succinyl) = CC(=O)O[C@H]1C(=O)[C@@]2(C)[C@H]([C@H](OC(=O)c3ccccc3)[C@]3(O)C[C@H](OC(=O)[C@H](OC(=O)CCC(=O)*)[C@@H](NC(=O)c4ccccc4)c4ccccc4)C(C)=C1C3(C)C)[C@]1(OC(C)=O)CO[C@@H]1C[C@@H]2O

Series [1] deals with A549 cells. The series is described as follows: Tumor horizontal migration (scratch test). In kind it is cell-based. As to conditions: 48 h. As to the method:
A549 cells in the logarithmic growth phase were taken, digested with trypsin to prepare a cell suspension, and 1 mL of the cell suspension was inoculated into a 24-well plate with 3.5×10^5 cells per well. The 24-well plate was incubated in a 37°C, 5% CO2 incubator for 24 h, then a scratch was made vertically along the horizontal line at the bottom of the plate using a 200 µL pipette tip (one scratch per well). The original medium was discarded, and the wells were washed twice with 1 mL PBS. A blank group, a positive drug group, and an administration group were set up. […] The cell migration status was photographed at 0 h and 48 h using a microscope (model: CKX31SF, manufacturer: OLYMPUS CORPORATION) at a magnification of 100×. Meanwhile, ImageJ 1.74V was used for quantitative calculation of the number of migrated tumor cells, and the results were expressed as mean ± SD (n = 3).

In series [2] the test system is A549 cells. The series is described as follows: Tumor vertical migration (Transwell chambers). It counts as cell-based. As to conditions: 48 h. The procedure: A549 cells in the logarithmic growth phase were taken, digested with trypsin to prepare a cell suspension, and 100 µL of the cell suspension was inoculated into Transwell chambers with 3.5×10^4 cells per well. A blank group, a positive drug group, and an administration group were set up. […] 600 µL of F-12K medium containing 10% FBS was added to the 24-well plate holding the chambers. After incubation in a 37°C, 5% CO2 incubator for 48 h, the cells were fixed with methanol for 30 min and stained with crystal violet for 10 min. After staining, the cell migration status was photographed under a microscope (model: CKX31SF, manufacturer: OLYMPUS CORPORATION) at a magnification of 100×. Meanwhile, Photoshop 20.0.1 was used for quantitative calculation of the number of migrated tumor cells, and the results were expressed as mean ± SD (n = 3).

In series [3] the test system is gastric cancer MKN45 xenograft tumors. Kind of series: In vivo tumor-inhibitory activity of DOC-AI, MKN45 xenograft. The arrangement: species or system BALB/c nude mice; Tumor Weight: unit not given here. As to conditions: 6.20 µmol/Kg. The procedure: (§1) Non-small cell lung cancer A549 cells and human gastric cancer MKN-45 cells were preserved in F12-K medium containing 10% fetal bovine serum and 1% penicillin + streptomycin, and incubated at 37°C with 5% CO2 and 95% humidity. The aforementioned cells were cultured in T175 flasks with an experimental cell density of 80%. The aforementioned cell lines were mycoplasma-negative. Both A549 cells and MKN-45 cells were provided by Nanjing Anji Biotechnology Co., Ltd.
Gastric cancer MKN45 cells in the vigorous growth stage were taken and inoculated subcutaneously into the right axilla of BALB/c nude mice (Hangzhou Ziyuan Laboratory Animal Technology Co., Ltd.) under sterile conditions, with a cell inoculation amount of 1×10^7. The diameter of transplanted tumors in nude mice was measured with a vernier caliper. When the tumors grew to approximately 50 mm^3, 18 tumor-bearing nude mice with good growth status and relatively uniform tumor size were selected and divided into 3 groups, with 6 mice in each group. The administration frequency was once every 3 days, and this cycle was repeated until day 21. The anti-tumor effect in the nude mice was dynamically observed by measuring the tumor diameter. The tumor diameter was measured every other day, and the body weight of the nude mice was weighed simultaneously during the measurement of the tumor diameter. After 21 days of administration, the nude mice were euthanized, the tumor inhibition rate (%) was calculated, and the tumor masses were peeled off and weighed. Table 7 Results of Detection of In Vivo Tumor-Inhibitory Activity of DOC-AI

Series [4] relates to non-small cell lung cancer A549 xenograft tumors. The series is described as follows: In vivo tumor-inhibitory activity of DOC-AI, A549 xenograft. Also on record: species or system BALB/c nude mice. As to conditions: 4 days on, 3 days off until day 21. As to the method:
as §1
Non-small cell lung cancer A549 cells in the vigorous growth stage were taken and inoculated subcutaneously into the right axilla of BALB/c nude mice (Nanjing Zhonghua Biotechnology Co., Ltd.) under sterile conditions, with a cell inoculation amount of 1×10^7. The diameter of transplanted tumors in nude mice was measured with a vernier caliper. When the tumors grew to approximately 50 mm^3, 30 tumor-bearing nude mice with good growth status and relatively uniform tumor size were selected and divided into 5 groups, with 6 mice in each group. The administration frequency was continuous administration for 4 days followed by an interval of 3 days, and this cycle was repeated until day 21. The anti-tumor effect in the nude mice was dynamically observed by measuring the tumor diameter. The tumor diameter was measured every other day, and the body weight of the nude mice was weighed simultaneously during the measurement of the tumor diameter. After 21 days of administration, the nude mice were euthanized, the tumor inhibition rate (%) was calculated, and the tumor masses were peeled off and weighed. Table 2 Detection of In Vivo Tumor-Inhibitory Activity of DOC-AI

Series [5] relates to human gastric cancer cell MKN45 xenograft tumors. Kind of series: In vivo tumor-inhibitory activity of PTX-AI, MKN45 xenograft. The arrangement: species or system BALB/c nude mice. As to conditions: 21 days; for Final Tumor Volume: in mm³ (unit assumed). The procedure: as §1
Human gastric cancer cells MKN-45 in the vigorous growth stage were taken and inoculated subcutaneously into the right axilla of BALB/c nude mice under sterile conditions, with a cell inoculation amount of 5×10^6. The diameter of transplanted tumors in nude mice was measured with a vernier caliper. When the tumors grew to approximately 50mm^3, […] tumor-bearing nude mice with good growth status and relatively uniform tumor size were selected, and divided into 6 groups, including 10 mice in the model group and 8 mice in each of the remaining groups. The anti-tumor effect of the test substance was dynamically observed by measuring the tumor diameter. The tumor diameter was measured every other day, and the body weight of the nude mice was weighed simultaneously during the measurement of the tumor diameter. After 21 days of administration, the nude mice were euthanized, the tumor inhibition rate (%) was calculated, and the tumor masses were peeled off and weighed. Table 3 Detection of In Vivo Tumor-Inhibitory Activity of PTX-AI

Setting [6] is: MKN45 xenograft, once every 3 days until day 21.
Setting [7] is: 2.64 µmol/Kg, once every other day.
Setting [8] is: 4.07 µmol/Kg, once every other day.
[9] abbreviates: 5.28 µmol/Kg, continuous administration for 4 days a week.
Setting [10] is: 7.92 µmol/Kg, once every other day.

For `CC(=O)O[C@@]12CO[C@@H]1C[C@H](O)[C@@]1(C)C(=O)[C@H](O)C3=C(C)[C@@H](OC(=O)[C@H](OC(=O)CCC(=O)N[C@@H](CCCNC(=N)N)C(=O)N[C@@H](CO)C(=O)N4CCC[C@H]4C(=O)N[C@@H](Cc4ccc(O)cc4)C(=O)N[C@@H](C)C(=O)N[C@@H](CC(N)=O)C(=O)N[C@@H](CO)C(=O)O)[C@@H](NC(=O)OC(C)(C)C)c4ccccc4)C[C@@](O)([C@@H](OC(=O)c4ccccc4)[C@H]21)C3(C)C` [DOC-AI], in series [1] (1 nM DOC-AI compared with 100 nM DOC), the horizontal migration rate result is listed as “lower than that of 100 nM DOC”. The “horizontal migration of A549 cells” value in series [1] (100 nM, 10 nM, 1 nM, compared with the blank group) was “effectively inhibited the horizontal migration of A549 cells in a concentration-dependent manner”. In series [2] (10 nM DOC-AI compared with 10 nM DOC), the vertical migration rate entry was “lower than that of 10 nM DOC”. Further, in series [2] (1 µM, 100 nM, 10 nM, 1 nM, compared with the blank group), the “vertical migration of A549 cells” value is listed as “effectively inhibited the vertical migration of A549 cells in a concentration-dependent manner”. The “effective concentration (vertical migration)” value in series [2] (A549, lowest effective concentration) is reported as 1 nM. For the same compound, the body weight changes entry in series [3] (MKN45 xenograft nude mice, during the administration period) is reported as “no significant weight loss was observed”. Besides, the “Tumor Inhibition Rate” value in series [3] (setting [6]) is reported as 84.25±9.15%; in series [4] (6.20 µmol/Kg), 90.40%; in series [4] (12.40 µmol/Kg), 95.33%; in series [4] (24.80 µmol/Kg) it was 97.33%. In addition, the “Tumor Weight” value was 204.34±54.48 in series [3] (setting [6]), 81.00 ± 40.81 mg in series [4] (6.20 µmol/Kg), 51.83 ± 31.36 mg in series [4] (12.40 µmol/Kg) and 20.53 ± 20.80 mg in series [4] (24.80 µmol/Kg). Moreover, the “Final Tumor Volume” value in series [3] (MKN45 xenograft, once every 3 days until day 21, in mm³ (unit assumed)) was 191.31±54.48; in series [4] (6.20 µmol/Kg), 73.75±23.01; in series [4] (12.40 µmol/Kg), 31.31±22.73; in series [4] (24.80 µmol/Kg) it was 20.30±20.80.
For `CC(=O)O[C@H]1C(=O)[C@@]2(C)[C@H]([C@H](OC(=O)c3ccccc3)[C@]3(O)C[C@H](OC(=O)[C@H](OC(=O)CCC(=O)N[C@@H](CCCNC(=N)N)C(=O)N[C@@H](CO)C(=O)N4CCC[C@H]4C(=O)N[C@@H](Cc4ccc(O)cc4)C(=O)N[C@@H](C)C(=O)N[C@@H](CC(N)=O)C(=O)N[C@@H](CO)C(=O)O)[C@@H](NC(=O)c4ccccc4)c4ccccc4)C(C)=C1C3(C)C)[C@]1(OC(C)=O)CO[C@@H]1C[C@@H]2O` [PTX-AI] ({Paclitaxel(2'-O-succinyl)}-RSPYANS-OH), the “Tumor Inhibition Rate” value was 36.3% in series [5] (setting [7]), 42.9% in series [5] (setting [8]), 53.3% in series [5] (setting [9]) and 60.8% in series [5] (setting [10]). Also, the “Tumor Weight” value in series [5] (setting [7]) is 0.961 ± 0.119 g; in series [5] (setting [8]), 0.861 ± 0.126 g; in series [5] (setting [9]), 0.705 ± 0.066 g; in series [5] (setting [10]), 0.591 ± 0.099 g. Further, the “Final Tumor Volume” value in series [5] (setting [7]) turned out to be 934.0±125.0; in series [5] (setting [8]) it was 852.1±137.3; in series [5] (setting [9]), 700.6±59.6; in series [5] (setting [10]), 579.8±91.9.
